One test deals with p38β MAPK (Homo sapiens, UniProt Q15759). Briefly: Kinase selectivity profile, 33P-ATP filter-binding assay. It is filed as biochemical. The method, boiled down:
(§1)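 Radiometric filter assay (33P-ATP) within a 95-kinase selectivity screen; one concentration, 10 µM, gives % remaining activity.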

The next test deals with TBK1 (Homo sapiens, UniProt Q9UHD2). Described as above. It counts as biochemical. In outline: as §1
The next test addresses SRPK1 (Homo sapiens, UniProt Q96SB4). Described as above. It is filed as biochemical. The method, boiled down: as §1
The target of a further test is CK1 (Homo sapiens, UniProt P48730). The test is described as above. It counts as biochemical. The method, boiled down: as §1
A further test concerns p38α. In words: glycine-rich loop FLiK binding assay (library screen). The note with it: initial library screen.

Structures are written as SMILES.

As a reminder, the remaining activity is what remains of the control signal, in per cent. Lower therefore signals a large loss of activity.

Chain of SRPK1 (Q96SB4 whole entry): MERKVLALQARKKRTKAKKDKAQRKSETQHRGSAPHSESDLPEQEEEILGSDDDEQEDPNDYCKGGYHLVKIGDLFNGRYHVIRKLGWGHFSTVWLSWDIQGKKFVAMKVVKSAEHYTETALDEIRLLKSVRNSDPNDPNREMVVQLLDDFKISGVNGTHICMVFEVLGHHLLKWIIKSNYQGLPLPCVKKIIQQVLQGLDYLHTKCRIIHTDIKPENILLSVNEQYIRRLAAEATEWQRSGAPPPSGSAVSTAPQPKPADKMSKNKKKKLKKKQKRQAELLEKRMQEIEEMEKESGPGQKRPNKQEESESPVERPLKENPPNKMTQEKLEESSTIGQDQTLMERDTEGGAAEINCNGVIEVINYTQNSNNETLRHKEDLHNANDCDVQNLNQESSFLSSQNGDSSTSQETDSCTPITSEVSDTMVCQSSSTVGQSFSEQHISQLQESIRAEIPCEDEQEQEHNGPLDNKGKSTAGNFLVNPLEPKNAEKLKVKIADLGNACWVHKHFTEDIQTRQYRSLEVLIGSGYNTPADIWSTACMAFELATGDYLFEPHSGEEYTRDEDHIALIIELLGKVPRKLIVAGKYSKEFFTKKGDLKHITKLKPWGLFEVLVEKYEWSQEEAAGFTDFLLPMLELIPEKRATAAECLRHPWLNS
Chain of p38β MAPK (Q15759 whole entry): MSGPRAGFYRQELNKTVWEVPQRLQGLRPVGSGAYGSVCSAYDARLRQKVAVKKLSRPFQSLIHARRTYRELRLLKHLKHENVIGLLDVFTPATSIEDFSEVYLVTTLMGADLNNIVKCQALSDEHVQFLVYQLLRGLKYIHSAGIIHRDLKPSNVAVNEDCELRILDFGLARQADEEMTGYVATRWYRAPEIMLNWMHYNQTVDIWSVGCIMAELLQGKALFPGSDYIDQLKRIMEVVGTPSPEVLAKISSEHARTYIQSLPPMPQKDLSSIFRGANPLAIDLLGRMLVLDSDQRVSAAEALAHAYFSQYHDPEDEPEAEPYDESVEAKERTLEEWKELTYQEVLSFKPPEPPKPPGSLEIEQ
Chain of TBK1 (Q9UHD2 whole entry): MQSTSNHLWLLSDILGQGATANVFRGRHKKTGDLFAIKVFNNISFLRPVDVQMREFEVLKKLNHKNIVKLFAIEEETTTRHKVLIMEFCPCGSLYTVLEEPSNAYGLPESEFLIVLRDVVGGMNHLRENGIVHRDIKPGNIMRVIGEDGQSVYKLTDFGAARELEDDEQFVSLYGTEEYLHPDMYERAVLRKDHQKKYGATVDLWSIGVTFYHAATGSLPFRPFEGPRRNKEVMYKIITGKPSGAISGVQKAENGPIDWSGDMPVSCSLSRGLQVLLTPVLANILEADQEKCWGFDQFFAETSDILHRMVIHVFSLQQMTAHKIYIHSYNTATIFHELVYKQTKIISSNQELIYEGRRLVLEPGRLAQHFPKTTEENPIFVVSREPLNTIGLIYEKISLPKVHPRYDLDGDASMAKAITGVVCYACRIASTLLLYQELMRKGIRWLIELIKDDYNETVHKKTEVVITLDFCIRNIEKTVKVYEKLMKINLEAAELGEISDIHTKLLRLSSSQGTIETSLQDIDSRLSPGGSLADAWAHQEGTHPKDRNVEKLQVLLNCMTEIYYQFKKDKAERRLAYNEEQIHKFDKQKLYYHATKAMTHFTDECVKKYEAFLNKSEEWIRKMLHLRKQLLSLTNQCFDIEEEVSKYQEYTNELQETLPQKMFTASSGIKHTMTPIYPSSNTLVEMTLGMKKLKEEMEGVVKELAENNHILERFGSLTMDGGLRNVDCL
Chain of CK1 (P48730 whole entry): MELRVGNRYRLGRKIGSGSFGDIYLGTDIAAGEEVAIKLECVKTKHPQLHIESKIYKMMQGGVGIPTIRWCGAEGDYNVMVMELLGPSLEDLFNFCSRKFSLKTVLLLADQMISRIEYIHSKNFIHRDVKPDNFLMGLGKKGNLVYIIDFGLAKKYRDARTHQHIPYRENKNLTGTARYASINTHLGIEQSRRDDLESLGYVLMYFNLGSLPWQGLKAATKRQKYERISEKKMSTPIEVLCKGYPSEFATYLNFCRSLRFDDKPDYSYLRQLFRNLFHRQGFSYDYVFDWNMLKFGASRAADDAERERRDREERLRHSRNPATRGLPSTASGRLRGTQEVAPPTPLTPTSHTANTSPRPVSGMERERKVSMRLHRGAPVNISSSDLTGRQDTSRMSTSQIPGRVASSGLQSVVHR

`Nc1ccc2c(NC3CC3)nc(-c3ccccc3)nc2c1` [1b, N^4-Cyclopropyl-2-phenyl-4,7-quinazolinediamine]: the remaining activity at 10 µM at p38β MAPK was 89%; on TBK1 it was 79%; at SRPK1, 83%; on CK1, 86%. In the test on p38α, the “binding detected by glycine-rich loop FLiK assay” value is “weakly detected”.

Values taken from article PMC3388095, “Fluorophore Labeled Kinase Detects Ligands That Bind within the MAPK Insert of p38α Kinase” (PLoS ONE, 2012).
